Data as given in patent US20200031811A1, “SUBSTITUTED MONO- AND POLYAZANAPHTHALENE DERIVATIVES AND THEIR USE” (Basilea Pharmaceutica International AG, priority 2015, published 2020).

Target: T1, MNK1 (Homo sapiens, UniProt Q9BUB5)
T1 construct: purchased Life Technologies or Carna Biosciences PV6023 or 02-145; host or cells: baculovirus infected insect cells
Experiment: MNK inhibition assay (Z-Lyte kinase assay, Ser/Thr 7 peptide)
Type: biochemical
Conditions: at 10 μM; read-out: Inhibition of MNK1 activity at indicated concentration
From the text: For the measurement of the activity of the MNK1 kinase the Z-Lyte kinase assay system was used. The kinase activity of MNK1 can be quantified with the Z-Lyte kinase assay kit Ser/Thr 7 peptide (Life Technologies PV3180). The kit was utilized according to the instructions of the provider. A recombinant GST-MNK1 fusion protein produced in and purified from baculovirus infected insect cells was used as enzyme source (GST-MNK1 Life Technologies PV6023 or Carna Biosciences 02-145). It was verified that both sources of the MNK1 enzyme gave similar IC50 values with several compounds. The MNK1 enzyme assay was performed in 384 well round bottom black microtiter plates (Corning 3676). The kinase reaction was performed for 3 hours at 31° C. As instructed by the provider of the kit the amount of enzyme was chosen such that ˜30% of the substrate peptide was phosphorylated in control wells containing buffer only. The MNK1 inhibiting activity of compounds was tested by adding the compounds to the kinase reaction at a concentration of 10000, 5000, 2000, 1000, 500, 200, 100, 50 nM. Compounds with strong MNK1 inhibition were tested at 20, 10, 5, 2, 1 and 0.5 nM in addition. Each compound concentration was tested at least in duplicate. The % phosphorylation of the substrate peptide at each compound concentration was calculated as described in the assay manual. The fluorescent signals were recordes on Biotek Cytation 3 microplate reader. The IC50, the concentration that reduced substrate phosphorylation by 50% if compared to buffer only wells, was calculated with the Grafit 6 software (Erythacus software).

T1 sequence (Q9BUB5 whole entry): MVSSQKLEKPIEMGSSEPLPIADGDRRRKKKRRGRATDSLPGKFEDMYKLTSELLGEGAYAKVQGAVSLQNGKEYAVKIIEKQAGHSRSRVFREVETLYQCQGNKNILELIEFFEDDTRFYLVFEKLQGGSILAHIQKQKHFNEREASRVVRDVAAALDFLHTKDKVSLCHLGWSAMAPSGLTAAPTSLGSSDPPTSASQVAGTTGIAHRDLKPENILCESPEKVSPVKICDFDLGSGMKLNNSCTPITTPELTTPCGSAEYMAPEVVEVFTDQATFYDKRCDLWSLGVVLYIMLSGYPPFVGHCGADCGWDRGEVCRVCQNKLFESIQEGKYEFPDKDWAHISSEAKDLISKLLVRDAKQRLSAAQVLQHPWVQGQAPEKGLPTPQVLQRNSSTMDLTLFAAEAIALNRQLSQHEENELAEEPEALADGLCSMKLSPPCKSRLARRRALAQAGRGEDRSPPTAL

inhibition at 10 µM [%]	SMILES
41	FC(F)(F)c1cc(NCc2ccc3cncc(-c4cc5ccccc5o4)c3c2)ccn1 [Example 64]
54	c1ccc(-c2cnnc3ccc(CN4CCNCC4)cc23)cc1 [Example 83, 4-Phenyl-6-(piperazin-1-ylmethyl)cinnoline]

Same assay, conditions: recombinant GST-MNK1, 3 hours at 31° C.

SMILES	IC50 [nM]
CN(CCCN)Cc1ccc2cncc(-c3ccc(O)cc3)c2c1 [Example 36]	99
NC1CCC(NCc2ccc3cncc(-c4ccc(O)cc4)c3c2)C1 (stereo not drawn) [Example 42, 4-[6-[[(3-Aminocyclopentyl)amino]methyl]-4-isoquinolyl]phenol]	496
NCCCOCc1ccc2cncc(-c3ccc(O)cc3)c2c1 [Example 44, 4-[6-(3-Aminopropoxymethyl)-4-isoquinolyl]phenol]	61
CN(C)C1CCN(Cc2ccc3cncc(-c4cc5ccccc5o4)c3c2)CC1 [Example 46, 1-[[4-(Benzofuran-2-yl)-6-isoquinolyl]methyl]-N,N-dimethyl-piperidin-4-amine]	618
Nc1cccc(NCc2ccc3cncc(-c4cc5ccccc5o4)c3c2)c1 [Example 48]	1150
NCc1ccc(NCc2ccc3cncc(-c4cc5ccccc5o4)c3c2)cc1 [Example 52]	163
Nc1cc[n+](Cc2ccc3cncc(-c4cc5ccccc5o4)c3c2)cc1 [Example 55]	14
Cc1c[n+](Cc2ccc3cncc(-c4cc5ccccc5o4)c3c2)ccc1N [Example 57]	7.9
Nc1cc[n+](Cc2ccc3cncc(-c4cc5ccccc5o4)c3c2)cc1C(F)(F)F [Example 58]	50
Nc1cc[n+](Cc2ccc3cncc(-c4cc5ccccc5o4)c3c2)cc1O [Example 59]	90
CN(Cc1ccc2cncc(-c3cc4ccccc4o3)c2c1)c1ccncc1 [Example 67]	57
Clc1cnccc1NCc1ccc2cncc(-c3cc4ccccc4o3)c2c1 [Example 71]	128
O=[N+]([O-])c1cnccc1NCc1ccc2cncc(-c3cc4ccccc4o3)c2c1 [Example 75, N-[[4-(Benzofuran-2-yl)-6-isoquinolyl]methyl]-3-nitro-pyridin-4-amine]	2130
Nc1cnccc1NCc1ccc2cncc(-c3cc4ccccc4o3)c2c1 [Example 76, N4-[[4-(Benzofuran-2-yl)-6-isoquinolyl]methyl]pyridine-3,4-diamine]	5.9
FC(F)(F)c1cnccc1NCc1ccc2cncc(-c3cc4ccccc4o3)c2c1 [Example 77]	1130
c1ccc2oc(-c3cncc4ccc(OC5CCNCC5)cc34)cc2c1 [Example 78, 4-(Benzofuran-2-yl)-6-(4-piperidyloxy)isoquinoline]	208
N[C@H]1CC[C@H](Oc2ccc3cncc(-c4cc5ccccc5o4)c3c2)CC1 [Example 79, 4-[[4-(Benzofuran-2-yl)-6-isoquinolyl]oxy]cyclohexanamine]	401
NC1CCN(Cc2ccc3nncc(-c4ccc(O)cc4)c3c2)CC1 [Example 86]	174
Nc1ncc(-c2ccccc2)c2cc(CN3CCNCC3)ccc12 [Example 91, 4-Phenyl-6-(piperazin-1-ylmethyl)isoquinolin-1-amine]	476
Nc1ncc(-c2ccc(O)cc2)c2cc(CN3CCNCC3)ccc12 [Example 93]	197

Continued, values first:

IC50 [nM]	SMILES
4220	NCc1ccccc1NCc1ccc2cncc(-c3cc4ccccc4o3)c2c1 [Example 51, 2-(Aminomethyl)-N-[[4-(benzofuran-2-yl)-6-isoquinolyl]methyl]aniline]
3730	NC1CCN(Cc2ccc3nncc(-c4ccccc4)c3c2)CC1 [Example 84]
1980	N[C@H]1CC[C@H](Nc2ccc3c(=O)[nH]cc(-c4cc5ccccc5o4)c3c2)CC1 [Example 87, 6-[(4-Aminocyclohexyl)amino]-4-(benzofuran-2-yl)-2H-isoquinolin-1-one]
1120	CN1CCN(Cc2ccc3cncc(-c4cc5ccccc5o4)c3c2)CC1 [Example 47]
675	N[C@H]1CC[C@@H](Oc2ccc3cncc(-c4cc5ccccc5o4)c3c2)CC1 [Example 80]
580	NCc1cccc(NCc2ccc3cncc(-c4cc5ccccc5o4)c3c2)c1 [Example 53]
577	Nc1ncc(-c2ccccc2)c2cc(CN3CCC(N)CC3)ccc12 [Example 92]
384	Nc1ccc(NCc2ccc3cncc(-c4cc5ccccc5o4)c3c2)cc1 [Example 50]
351	NC1CCCC(NCc2ccc3cncc(-c4ccc(O)cc4)c3c2)C1 (stereo not drawn) [Example 38]
336	NC1CCC(NCc2ccc3cncc(-c4ccc(O)cc4)c3c2)CC1 (stereo not drawn) [Example 37]
318	Oc1ccc(-c2cnnc3ccc(CN4CCNCC4)cc23)cc1 [Example 85]
263	Oc1ccc(-c2cncc3ccc(CNC4CCNCC4)cc23)cc1 [Example 40]
254	Oc1ccc(-c2cncc3ccc(CNC4CCNC4)cc23)cc1 (stereo not drawn) [Example 41]
219	CN(C)CCCNCc1ccc2cncc(-c3ccc(O)cc3)c2c1 [Example 43, 4-[6-[[3-(Dimethylamino)propylamino]methyl]-4-isoquinolyl]phenol]
143	Nc1ccc[n+](Cc2ccc3cncc(-c4cc5ccccc5o4)c3c2)c1 [Example 56]
45	CN(C)c1cc(NCc2ccc3cncc(-c4cc5ccccc5o4)c3c2)ccn1 [Example 68]
32	Fc1cnccc1NCc1ccc2cncc(-c3cc4ccccc4o3)c2c1 [Example 70]
17	Cc1cnccc1NCc1ccc2cncc(-c3cc4ccccc4o3)c2c1 [Example 69]
15	Nc1cc[n+](Cc2ccc3cncc(-c4cc5ccccc5o4)c3c2)c2ccccc12 [Example 54, 1-[[4-(Benzofuran-2-yl)-6-isoquinolyl]methyl]quinolin-1-ium-4-amine]
12	COc1cnccc1NCc1ccc2cncc(-c3cc4ccccc4o3)c2c1 [Example 72]
5.3	O=c1cc(NCc2ccc3cncc(-c4cc5ccccc5o4)c3c2)cc[nH]1 [Example 74]
5	Oc1cnccc1NCc1ccc2cncc(-c3cc4ccccc4o3)c2c1 [Example 73]
3	c1ccc2oc(-c3cncc4ccc(CNc5ccncc5)cc34)cc2c1 [Example 61]

Test system: human pancreatic cancer cell line MiaPaCa2 (ATCC CRL-1420)
Experiment: Cell growth assay (CellTiterGlo, 72 hours)
Type: cell-based
Conditions: MIA PaCa-2, MiaPaCa2 cells, 72 hours, read-out: IC50 MiaPaCa
Method: The inhibition of cell growth by the compounds was tested by exposing the human pancreatic cancer cell line MiaPaCa2 (ATCC CRL-1420) to the compounds. The assay was performed in 384 well clear bottom white microtiter plates (Greiner #781098). Each well was seeded with 10^3 cells in 20 μl of Dulbecco's modified Eagle's medium (Sigma D6796) supplied with 10% fetal calf scrum (Sigma F7524), 2.5% horse serum (Sigma H0146), 1% Penicillin-Streptomycin (Sigma P0781), 1% MEM nonessential amino acid solution 100× (Sigma M71459) and 1% 200 mM L-Glutamine (Sigma G7513) culture medium. After overnight incubation at 37° C. in 5% CO2 the compounds were added in the following concentrations: 100, 50, 20, 10, 5, 2, 1, 0.5, 0.2 and 0.1 μM. Each compound concentration was tested in quadruplicate. The incubation was then continued for 72 hours. After 72 hours the growth of the cells was assessed by the addition of the CellTiterGlo reagent (Promega G9242) as instructed by the provider. The luminescent signal was recorded on a SpectraMax M2 microplate reader. The signal obtained in wells containing cells cultivated in the absence of compound was set to 100% growth after subtracting the signal obtained in medium only wells. The % growth in each well was calculated by subtracting the medium only value and dividing through the 100% growth value. The IC50 for cell growth, the concentration of compound at which cell growth was reduced to 50%, was calculated with the GraFit6 software (Erythacus software).

SMILES	IC50 [nM]
CN(CCCN)Cc1ccc2cncc(-c3ccc(O)cc3)c2c1 [Example 36]	20200
NCCCOCc1ccc2cncc(-c3ccc(O)cc3)c2c1 [Example 44, 4-[6-(3-Aminopropoxymethyl)-4-isoquinolyl]phenol]	20600
CN(C)C1CCN(Cc2ccc3cncc(-c4cc5ccccc5o4)c3c2)CC1 [Example 46, 1-[[4-(Benzofuran-2-yl)-6-isoquinolyl]methyl]-N,N-dimethyl-piperidin-4-amine]	8210
Nc1cccc(NCc2ccc3cncc(-c4cc5ccccc5o4)c3c2)c1 [Example 48]	25000
NCc1ccc(NCc2ccc3cncc(-c4cc5ccccc5o4)c3c2)cc1 [Example 52]	14100
Nc1cc[n+](Cc2ccc3cncc(-c4cc5ccccc5o4)c3c2)cc1 [Example 55]	1830
Cc1c[n+](Cc2ccc3cncc(-c4cc5ccccc5o4)c3c2)ccc1N [Example 57]	3370
Nc1cc[n+](Cc2ccc3cncc(-c4cc5ccccc5o4)c3c2)cc1C(F)(F)F [Example 58]	13600
Nc1cc[n+](Cc2ccc3cncc(-c4cc5ccccc5o4)c3c2)cc1O [Example 59]	47000
FC(F)(F)c1cc(NCc2ccc3cncc(-c4cc5ccccc5o4)c3c2)ccn1 [Example 64]	14800
CN(Cc1ccc2cncc(-c3cc4ccccc4o3)c2c1)c1ccncc1 [Example 67]	5580
Clc1cnccc1NCc1ccc2cncc(-c3cc4ccccc4o3)c2c1 [Example 71]	10300
O=[N+]([O-])c1cnccc1NCc1ccc2cncc(-c3cc4ccccc4o3)c2c1 [Example 75, N-[[4-(Benzofuran-2-yl)-6-isoquinolyl]methyl]-3-nitro-pyridin-4-amine]	18000
Nc1cnccc1NCc1ccc2cncc(-c3cc4ccccc4o3)c2c1 [Example 76, N4-[[4-(Benzofuran-2-yl)-6-isoquinolyl]methyl]pyridine-3,4-diamine]	4750
FC(F)(F)c1cnccc1NCc1ccc2cncc(-c3cc4ccccc4o3)c2c1 [Example 77]	10000
c1ccc2oc(-c3cncc4ccc(OC5CCNCC5)cc34)cc2c1 [Example 78, 4-(Benzofuran-2-yl)-6-(4-piperidyloxy)isoquinoline]	3460
N[C@H]1CC[C@H](Oc2ccc3cncc(-c4cc5ccccc5o4)c3c2)CC1 [Example 79, 4-[[4-(Benzofuran-2-yl)-6-isoquinolyl]oxy]cyclohexanamine]	4720
Nc1ncc(-c2ccccc2)c2cc(CN3CCNCC3)ccc12 [Example 91, 4-Phenyl-6-(piperazin-1-ylmethyl)isoquinolin-1-amine]	11300

Second part, the molecule after the results:

IC50 [nM]	SMILES
6340	NCc1ccccc1NCc1ccc2cncc(-c3cc4ccccc4o3)c2c1 [Example 51, 2-(Aminomethyl)-N-[[4-(benzofuran-2-yl)-6-isoquinolyl]methyl]aniline]
4470	N[C@H]1CC[C@H](Nc2ccc3c(=O)[nH]cc(-c4cc5ccccc5o4)c3c2)CC1 [Example 87, 6-[(4-Aminocyclohexyl)amino]-4-(benzofuran-2-yl)-2H-isoquinolin-1-one]
10900	CN1CCN(Cc2ccc3cncc(-c4cc5ccccc5o4)c3c2)CC1 [Example 47]
3550	N[C@H]1CC[C@@H](Oc2ccc3cncc(-c4cc5ccccc5o4)c3c2)CC1 [Example 80]
18600	NCc1cccc(NCc2ccc3cncc(-c4cc5ccccc5o4)c3c2)c1 [Example 53]
7200	Nc1ncc(-c2ccccc2)c2cc(CN3CCC(N)CC3)ccc12 [Example 92]
5590	Nc1ccc(NCc2ccc3cncc(-c4cc5ccccc5o4)c3c2)cc1 [Example 50]
25000	NC1CCCC(NCc2ccc3cncc(-c4ccc(O)cc4)c3c2)C1 (stereo not drawn) [Example 38]
32200	CN(C)CCCNCc1ccc2cncc(-c3ccc(O)cc3)c2c1 [Example 43, 4-[6-[[3-(Dimethylamino)propylamino]methyl]-4-isoquinolyl]phenol]
6190	CN(C)c1cc(NCc2ccc3cncc(-c4cc5ccccc5o4)c3c2)ccn1 [Example 68]
12200	Fc1cnccc1NCc1ccc2cncc(-c3cc4ccccc4o3)c2c1 [Example 70]
7000	Cc1cnccc1NCc1ccc2cncc(-c3cc4ccccc4o3)c2c1 [Example 69]
2850	Nc1cc[n+](Cc2ccc3cncc(-c4cc5ccccc5o4)c3c2)c2ccccc12 [Example 54, 1-[[4-(Benzofuran-2-yl)-6-isoquinolyl]methyl]quinolin-1-ium-4-amine]
5080	COc1cnccc1NCc1ccc2cncc(-c3cc4ccccc4o3)c2c1 [Example 72]
19200	O=c1cc(NCc2ccc3cncc(-c4cc5ccccc5o4)c3c2)cc[nH]1 [Example 74]
15000	Oc1cnccc1NCc1ccc2cncc(-c3cc4ccccc4o3)c2c1 [Example 73]
5250	c1ccc2oc(-c3cncc4ccc(CNc5ccncc5)cc34)cc2c1 [Example 61]

Same assay, conditions: MIA PaCa-2, at 50 μM, read-out: Inhibition of MiaPaCa growth at indicated concentration

SMILES	inhibition at 50 µM [%]
NC1CCC(NCc2ccc3cncc(-c4ccc(O)cc4)c3c2)CC1 (stereo not drawn) [Example 37]	57
NC1CCC(NCc2ccc3cncc(-c4ccc(O)cc4)c3c2)C1 (stereo not drawn) [Example 42, 4-[6-[[(3-Aminocyclopentyl)amino]methyl]-4-isoquinolyl]phenol]	44
Nc1ncc(-c2ccc(O)cc2)c2cc(CN3CCNCC3)ccc12 [Example 93]	27

Same assay, conditions: MIA PaCa-2, at 100 μM, read-out: Inhibition of MiaPaCa growth at indicated concentration

SMILES	inhibition at 100 µM [%]
Oc1ccc(-c2cncc3ccc(CNC4CCNCC4)cc23)cc1 [Example 40]	48
Oc1ccc(-c2cncc3ccc(CNC4CCNC4)cc23)cc1 (stereo not drawn) [Example 41]	67
Nc1ccc[n+](Cc2ccc3cncc(-c4cc5ccccc5o4)c3c2)c1 [Example 56]	85
c1ccc(-c2cnnc3ccc(CN4CCNCC4)cc23)cc1 [Example 83, 4-Phenyl-6-(piperazin-1-ylmethyl)cinnoline]	31
NC1CCN(Cc2ccc3nncc(-c4ccccc4)c3c2)CC1 [Example 84]	33
Oc1ccc(-c2cnnc3ccc(CN4CCNCC4)cc23)cc1 [Example 85]	33
NC1CCN(Cc2ccc3nncc(-c4ccc(O)cc4)c3c2)CC1 [Example 86]	50
